We go through two molecules from patent publication US20100129933A1, “METHOD FOR DETECTING THE BINDING BETWEEN MDM2 AND THE PROTEASOME” (Forschungszentrum Karlsruhe GmbH, priority 2007, published 2010).

The test system of one experiment is p53 ubiquitination. Kind of experiment: Cellular p53 ubiquitylation assay in U2OS cells. Type of experiment: cell-based. The following applies: His-tagged ubiquitin, 10 μM, 2 hours. The protocol:
After incubation ubiquitylated proteins were purified by adsorption to Ni2+-agarose and separated by SDS-PAGE. P53 was detected by Western blotting. (TCL: Total cell lysate)
To test this option, we performed an cellular ubiquitylation assay in the presence of the compound.

The next experiment deals with T1, HDM2 (Homo sapiens, UniProt Q00987).
T1 construct: made in house; host or cells: bacteria (pGEX-4T-2 vector)
Kind of experiment: Limited proteolysis of GST-HDM2 by trypsin. Type of experiment: binding. The following applies: 10 μM compound, 40 ng trypsin, 15 min on ice.

Structures are written as SMILES. Peptide text beside a SMILES is read from it. * marks the point of attachment. Cbz = O=C(OCc1ccccc1)*

T1 sequence (Q00987 whole entry): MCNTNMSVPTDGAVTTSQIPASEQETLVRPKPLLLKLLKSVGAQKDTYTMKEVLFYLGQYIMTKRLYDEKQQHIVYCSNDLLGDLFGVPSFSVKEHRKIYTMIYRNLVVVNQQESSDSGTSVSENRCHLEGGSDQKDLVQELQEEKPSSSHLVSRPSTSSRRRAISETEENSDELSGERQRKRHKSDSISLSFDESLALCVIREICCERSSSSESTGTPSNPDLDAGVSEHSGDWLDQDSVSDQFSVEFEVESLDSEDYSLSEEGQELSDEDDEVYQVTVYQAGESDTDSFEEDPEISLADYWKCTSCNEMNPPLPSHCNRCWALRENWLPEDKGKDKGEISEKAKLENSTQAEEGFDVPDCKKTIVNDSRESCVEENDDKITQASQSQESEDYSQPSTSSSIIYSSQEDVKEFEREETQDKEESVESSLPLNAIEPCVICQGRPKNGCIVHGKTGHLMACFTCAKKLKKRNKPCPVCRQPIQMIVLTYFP
Description for HDM2: GST-HDM2, GST-HDMX were incubated with 10 μM of JNJ-#1 or with DMSO for control. Then 40 ng trypsin were added and the mixture was incubated for 15 min on ice. […] HDM2 was detected by incubating the membrane with the HDM2 antibodies 4B2, SMP14 and C18. Western blots were developed by ECL.
40 ng of trypsin were added and the mixture was incubated for 15 min on ice. Samples were separated by 10% SDS-PAGE gel and blotted onto Immobilon P membrane. The membrane was incubated with the anti-HDM2 antibody 4B2. The Western blot was developed by ECL.
Then 40 ng trypsin was added and the mixture was incubated for 15 min on ice. Proteolysis was stopped by addition of 2× sample buffer. Samples were loaded onto an 12 or 15% SDS-PAGE gel and HDM2 or HDMX were detected by Western blotting.

In the case of `COc1ccc(C2=N[C@@H](c3ccc(Cl)cc3)[C@@H](c3ccc(Cl)cc3)N2C(=O)N2CCNC(=O)C2)c(OC(C)C)c1` [Nutlin-3], the “ubiquitylation of p53” value in the experiment with p53 ubiquitination was “strongly reduced”. For `CC(C)C[C@@H](C=O)NC(=O)[C@H](CC(C)C)NC(=O)[C@H](CC(C)C)NC(=O)OCc1ccccc1` [MG132] (Cbz-Leu-Leu-Leu-aldehyde), the “proteolysis of GST-HDM2 by trypsin” value at HDM2 is “had no affect”.
